Data on one substance can be found in patent US7745402B2, “Method of treating pancreatitis” (Lundbeck Inc., priority 2005, dated 2010).

In test [1] the test system is HO-1. In words: HO-1 immunoblot of mouse tissue/cell homogenates after hemin. Format: in vivo, mice. Particulars: for HO-1 induction: hemin 3× during 7 d. On the procedure:
(A, B) Total tissue homogenates were obtained from pancreata of caerulein-injected or choline deficient diet (CDD)-fed mice. Two age and sex-matched mice were used for each time point. Homogenates were tested by blotting using antibodies to HO-1 or HO-2. (C) Mice (3 mice/condition) were given hemin by intraperitoneal injection (4× during one week, or 8× during two weeks). Two “control” mice were injected with vehicle alone. Pancreatic homogenates were then obtained and blotted with anti-HO-1/2. (D-F) Mice were injected with saline, hemin, or vehicle (8 mice/group)3×(arrows) followed by feeding with CDD for 3 d then harvesting of the pancreata. HO-1 and HO-2 were analyzed by blotting of pancreatic homogenates (3 mice/group). […] A representative hematoxylin and eosin staining of pancreata from mice that survived CDD feeding is shown (scale bar=50 μM).
FIG. 8: HO-1 expression and hemin-mediated induction in mouse tissues and cells. Mice were injected 3× during 7d with vehicle or hemin (2 mice/group) followed by harvesting of the indicated organs and cells then preparation of total tissue/cell homogenates. Protein concentrations of the homogenates were measured followed by SDS-PAGE separation (40 μg of protein/lane) then blotting using anti-HO-1 antibodies.
Hemin, vehicle and antibodies. […]
(§1) Animal procedures. […] Immunofluorescence staining was performed as described (29) and images were analyzed using confocal microscopy. Total tissue lysates were prepared by homogenization in Laemmli sample buffer and analyzed by SDS-PAGE followed by transfer to membranes for blotting and protein visualization by enhanced chemiluminescence. Trypsin activity was determined using a fluorimetric assay and the substrate Boc-Gln-Ala-Arg-MCA (Peptides International Inc.; Louisville, Ky.), and comparison to a standard curve generated with purified trypsin as described. […] Lung injury after caerulein administration was assessed as previously described, based on neutrophilic infiltration, pulmonary edema, alveolar distension and collapse. […]

The subject of test [2] is HO-1^+ pancreatic macrophages. In words: Staining of pancreatic macrophages (HO-1, F4/80) after hemin. In kind it is in vivo, mice. Particulars: intraperitoneal hemin. The protocol: FIG. 3: Hemin increases HO-1^+ pancreatic macrophages in association with MCP-1 and MIP-1α induction. (A) Pancreas from CDD-fed mice was triple-stained using antibodies to HO-1 (a), the macrophage marker F4/80 (b), and the granulocyte marker Gr-1 (c). Scale bar in panel d=20 μM. (B) Mice were treated intraperitoneally with hemin (H) or vehicle (V) once (H×1) or 3×(H×3, V×3) during a one week period, followed by feeding with CDD or regular chow for 3 d. Pancreata were collected followed by staining and counting F4/80^+ macrophages in 10 randomly selected high power fields (HPF). The mean±SD (3 mice/group) and p-value for the indicated comparisons are shown. […]
as §1

Turning to Hemin, the HO-1 induction entry in test [1] (bone marrow, spleen, brain) is “not in bone marrow, spleen or brain”; in test [1] (peritoneal cells, liver, pancreas and colon), “induction of HO-1 in peritoneal cells, liver, pancreas and colon (most prominent change being in pancreas)”. Also, in test [1] (pancreas, 8× during two weeks vs 4× during one week (FIG. 1C)), the “level of HO-1 induction on excessive dosing” value was “excessive dosing decreases the level of HO-1 induction”. Further, in test [2], the “HO-1^+ pancreatic macrophages” value is recorded as “increases”.
